Data reported in patent US20260102499A1, “COMPOSITIONS WITH REDUCED N[…]” (INVENTIA HEALTHCARE LIMITED, priority 2022, published 2026).
Several values for one entry are separate records, joined by “and”; a condition that tells them apart may be missing. Equal entries are not always repeated.

Experiment: not given
Details: per day, as published by Health Canada; cited from earlier work

| SMILES | Acceptable Intake (AI) Levels |
| --- | --- |
| CN1CCN(N=O)CC1 [1-methyl-4-nitrosopiperazine (MNP), 1-methyl-4-nitrosopiperazine] | 96.0 ng/day |
| O=NN1CCn2c(nnc2C(F)(F)F)C1 [7-Nitroso-3-(trifluoromethyl)-5,6,7,8-tetrahydro[1,2,4]triazolo-[4,3-a]pyrazine] | 37.0 ng/day |
| CN(CCc1ccccc1)N=O [N-methyl-N-nitroso-phenethylamine] | 8.0 ng/day |
| O=NN1CC=CCC1 [N-nitroso-1,2,3,6-tetrahydropyridine] | 37.0 ng/day |
| CN(CCCC(=O)O)N=O [N-nitroso-4-(methylamino)butyric acid] | 96.0 ng/day |
| CCCCN(CCCC)N=O [N-nitroso-dibutylamine (NDBA), N-nitroso-dibutylamine] | 26.5 ng/day |
| CCN(CC)N=O [N-nitroso-diethylamine (NDEA), N-nitroso-diethylamine] | 26.5 ng/day |
| CC(C)N(N=O)C(C)C [N-nitroso-diisopropylamine (NDIPA), N-nitroso-diisopropylamine] | 26.5 ng/day |
| CN(C)N=O [N-nitroso-dimethylamine (NDMA), N-nitroso-dimethylamine] | 96.0 ng/day |
| CCCN(CCC)N=O [N-nitroso-dipropylamine (NDPA), N-nitroso-dipropylamine] | 26.5 ng/day |
| CN(CC[C@H](Oc1cccc2ccccc12)c1cccs1)N=O [N-nitroso-duloxetine (NDLX), N-nitroso-duloxetine] | 100.0 ng/day |
| CCN(N=O)C(C)C [N-nitroso-ethylisopropylamine (NEIPA), N-nitroso-ethylisopropylamine] | 26.5 ng/day |
| COC(=O)C(c1ccccc1)C1CCCCN1N=O (stereo not shown) [N-nitroso-methylphenidate] | 1300.0 ng/day |
| CN(CCC=C1c2ccccc2CCc2ccccc21)N=O [N-nitroso-nortriptyline (NNORT), N-nitroso-nortriptyline] | 8.0 ng/day |
| O=NN1CCCCC1 [N-nitroso-piperidine] | 1300.0 ng/day |
| C#CCN(N=O)[C@@H]1CCc2ccccc21 [N-nitroso-rasagiline] | 18.0 ng/day |
| O=NN1CC2CC(C1)c1cc3nccnc3cc12 [N-nitroso-varenicline (NNV), N-nitroso-varenicline] | 37 ng/day and 37.0 ng/day |
| O=NN1CCOCC1 [N-nitrosomorpholine (NMOR), N-nitrosomorpholine] | 127.0 ng/day |

Experiment: Acceptable intake / acceptable level of nitrosamine impurities (Health Canada)
Details: based on a maximum daily dose of 2 mg for varenicline
Source text: International regulators such as United States Food and Drug Administration (USFDA), European Medicine Agency (EMA), and Health Canada have published recommendations with respect to ‘acceptable intake’ of nitrosamine impurities. ‘Acceptable intake’ (per day) of nitrosamine impurities varies with the impurity structure, molecular weight, and its toxicity potential. Table 1 illustrates the per day ‘acceptable intake’ of some nitrosamine impurities, as published by Health Canada.
‘Acceptable intake’ of a nitrosamine impurity, when applied to the maximum daily dose of a drug, provides ‘acceptable levels’ of the said nitrosamine impurity in pharmaceutical compositions containing the said drug. ‘Acceptable levels’ of a nitrosamine impurity are expressed in parts per million (ppm) or parts per billion (ppb), of the drug (by weight). For example, for varenicline (which contains amine), the ‘acceptable intake’ of the N-nitroso-varenicline (NNV) (nitrosamine impurity of the NDSRI type) is 37 ng/day, and the ‘acceptable level’ of NNV is 18.5 ppm based on a maximum daily dose of 2 mg for varenicline.

| SMILES | acceptable level of NNV [ppm] |
| --- | --- |
| O=NN1CC2CC(C1)c1cc3nccnc3cc12 [N-nitroso-varenicline (NNV), N-nitroso-varenicline] | 18.5 |
